# Data published in patent US20200190101A1, “Composition Containing Novel Glutamic Acid Derivative And Block Copolymer, And Use Thereof” (Nippon Kayaku Kabushiki Kaisha, priority 2015, published 2020).
# Tests used:
# [1] = tested on: SK-OV-3 cells having low GGT activity; experiment: cells; assay type: cell-based; settings: Homo sapiens; SK-OV-3 cells, 10 μM, 6 hours exposure then 3 days incubation; read-out: Cell proliferation inhibitory activity
# Experimental: After the cells were incubated for 6 hours, the interior of the wells was washed, and after the cells were further incubated for 3 days, the cells were immobilized with methanol and stained using Methylene Blue dye. After staining, the dye was extracted with a 0.3% aqueous solution of hydrochloric acid was extracted, and the light absorbance at 660 nm was measured. For the light absorbance thus obtained, the cell proliferation suppressive activity was evaluated based on the reduction ratio for the light absorbance measured from cells to which the compound was not added.
# By a similar operation, the cell proliferation suppressive activity was evaluated from the light absorbance, using doxorubicin that was not converted to a glutamic acid derivative. The results are shown in FIG. 1 (OS-RC-2 cells having high GGT activity) and FIG. 2 (SK-OV-3 cells having low GGT activity).
# The cell proliferation inhibitory activity of the EHC-bonded glutamic acid derivative according to Synthesis Example 6 was evaluated using OS-RC-2 cells (RIKEN BioResource Center), which are known to have high GGT activity, and SK-OV-3 cells (American Type Culture Collection), which are known to have low GGT activity.
# On a 96-well plate, OS-RC-2 cells having high GGT activity and SK-OV-3 cells having low GGT activity were each inoculated in an amount of 4,000 cells/well and were incubated for one day at 37° C. and 5% CO2, and then the EHC prodrug according to Synthesis Example 6 was added to the cells at a final concentration of 0.0001 to 1 μM. After the cells were incubated for 6 hours, the interior of the wells was washed, and the cells were further incubated for 3 days. After the incubation, the cells were immobilized with methanol and were stained using Methylene Blue dye. After staining, the dye was extracted with a 0.3% aqueous solution of hydrochloric acid, and the light absorbance at 660 nm was measured. The cell proliferation suppressive activity was evaluated based on the reduction ratio for the light absorbance thus obtained, with respect to the light absorbance measured from cells to which the compound was not added.
# By a similar operation, EHC, which was an active ingredient of Synthesis Example 6, was used without modification, and the cell proliferation suppressive activity was evaluated from the light absorbance.
# [2] = Test on pharmacokinetics of Synthesis Example 1 (tissue concentrations, OS-RC-2 tumor-bearing mice); assay type: in vivo, SCID mice; settings: for Unchanged drug concentration: value after 5 minutes, 5 mg/kg in terms of doxorubicin i.v.
# Experimental: Human renal cell cancer OS-RC-2 tumors that had been subcutaneously subcultured in SCID mice were produced into blocks that measured about 2 mm on each side, and the blocks were subcutaneously transplanted into SCID mice using a trocar.
# At time points of 5 minutes, 3 hours, and 24 hours after the administration, various tissues such as blood plasma, heart, liver, bone marrow, and tumor were collected under ether anesthesia.
smiles,measurement,setting,value
"COc1cccc2c1C(=O)c1c(O)c3c(c(O)c1C2=O)C[C@@](O)(C(=O)CO)CC3OC1CC(NC(=O)OCc2ccc(NC(=O)CCC(N)C(=O)O)cc2)C(O)C(C)O1 (stereo partly drawn) [Synthesis Example 1, (((4-((S)-4-amino-4-carboxybutanamide)benzyl)oxy)carbonyl)doxorubicin]",inhibition at 10 µM,[1],13%
same,Unchanged drug concentration,[2]; Blood plasma,9.36 μg/mL or g
same,Unchanged drug concentration,[2]; Bone marrow,0.336 μg/mL or g
same,Unchanged drug concentration,[2]; Heart,1.63 μg/mL or g
same,Unchanged drug concentration,[2]; Liver,60.6 μg/mL or g
same,Unchanged drug concentration,[2]; Tumor,0.192 μg/mL or g
same,"Concentration of doxorubicin produced, compared to doxorubicin hydrochloride","[2]; blood plasma, liver, bone marrow, and heart (GGT expressed at a low level)",low
same,"Concentration of doxorubicin produced, compared to doxorubicin hydrochloride",[2]; tumor (GGT expressed at a high level),high
